Measurements from patent publication US11878016B2, “Methods and products for treating subjects with autism spectrum disorders” (NEURIM PHARMACEUTICALS (1991) LTD., priority 2021, dated 2024).

System: C57BL/6J mice exposed in utero to VPA (and SAL control offspring)
Test: Three chamber test in the valproic acid (VPA) model of autism
Type: in vivo
Text: Furthermore, rodents prenatally exposed to this drug display behavioral phenotypes characteristics of the human autism condition. This model might better represent the many cases of idiopathic autism which are of environmental/epigenetic origins than do transgenic models carrying mutations in single autism-associated genes. The VPA model is an environmentally triggered model with strong construct and clinical validity. The VPA-induced rodent model is an art-recognized and well-established and widely utilized animal model to test putative efficacy of pharmacological agents on behavioral and social elements in the autistic spectrum for humans.
C57BL/6J mice were obtained at 7-8 weeks of age and were mated, with pregnancy confirmed by the presence of a vaginal plug on embryonic day 0 (E0). On E12.5, pregnant females received a single intraperitoneal injection of sodium salt of valproic acid (VPA, 500 mg/kg) dissolved in saline (SAL). Control females received an equal volume of SAL only. Day of birth was recorded as PO (postnatal day zero). The offspring were weaned on P21 (postnatal day 21) and the male offspring were housed in groups of 4-5. Experiments were carried out on male offspring. The mice were housed in a temperature- and humidity-controlled environment with ad libitum access to food and water. Animals were maintained on a 12 hr light/dark schedule, with lights on at 8 A.M.
The male offspring of VPA-treated mice were divided into 4 groups (n=8-9 per group): VPA-Vehicle)+50 μg of ZnSO4, VPA-ticagrelor (0.3 mg/kg)+[…] of ZnSO4, VPA-ticagrelor (10 mg/kg)+50 μg of ZnSO4 and VPA-ticagrelor (30 mg/kg)+50 μg of ZnSO4. The male offspring of SAL-treated mice were divided into 2 groups (n=10 per group): SAL-Vehicle and SAL-ticagrelor (30 mg/kg)+50 μg of ZnSO4. From the sixth week to eight week of age, the mice received three once-weekly injections of either saline (50 μl/g ip) or ticagrelor (i.p.). Twenty-four hours after the last injection, the three chamber test was performed.
The three-chamber test assesses cognition in the form of general sociability and interest in social novelty in a rodent model of CNS disorders. This test measures the sociability, the propensity to spend time with another mouse, as compared to time spent alone in an identical but empty chamber.
The apparatus was an acrylic box (length: 62 cm, width: 41 cm, height: 30.5 cm) divided into three chambers. A 5 cm×5 cm opening was made on the partitions so that mice could freely explore the three chambers. Mouse was first placed into the centre chamber of the apparatus and allowed 5 min for habituation. Following the completion of the acclimatization period the test mouse was removed to a holding cage, and the bedding material was redistributed. Then a novel mouse enclosed in a tiny cage was placed in one lateral chamber (social area) and an empty tiny cage was placed in the other lateral chamber as a novel object (non-social area). Mouse was first placed into the centre chamber and allowed to freely explore the chambers for 10 min and the time spent in each of the three areas (social, centre, and non-social areas) was recorded.
Statistical Analyses: Statistical analyses for the data were performed using one-way or two-way RM ANOVA (SigmaStat 3.1). Post-hoc comparisons were performed with the Tukey HSD method. If data were not normally distributed, Kruskal-Wallis one way ANOVA on ranks followed by the Dunn's method was used. All data were represented as mean±SEM. Significant level was set at p<0.05.

[1] = SAL (control) offspring, ticagrelor 30 mg/kg i.p. + 50 μg ZnSO4, vs SAL-Vehicle, p>0.05

CCCSc1nc(N[C@@H]2C[C@H]2c2ccc(F)c(F)c2)c2nnn([C@@H]3C[C@H](OCCO)[C@@H](O)[C@H]3O)c2n1 [ticagrelor, (1S,2S,3R,5S)-3-[7-[[(1R,2S)-2-(3,4-difluorophenyl)cyclopropyl]amino]-5-(propylthio)-3H-1,2,3-triazolo[4,5-d]pyrimidin-3-yl]-5-(2-hydroxyethoxy)-1,2-cyclopentanediol]
time spent in non-social area [1]: no significant difference
time spent in social area [1]: no significant difference
time spent in social area (VPA offspring, ticagrelor 10 mg/kg i.p. + 50 μg ZnSO4, three once-weekly injections, test 24 h after the last, vs VPA-Vehicle, p<0.01): significant increase
time spent in non-social area (VPA offspring, ticagrelor 10 mg/kg i.p. + 50 μg ZnSO4, vs VPA-Vehicle, p<0.01): significant decrease
time spent in social area (VPA offspring, ticagrelor 30 mg/kg i.p. + 50 μg ZnSO4, three once-weekly injections, test 24 h after the last, vs VPA-Vehicle, p<0.001): significant increase
time spent in non-social area (VPA offspring, ticagrelor 30 mg/kg i.p. + 50 μg ZnSO4, vs VPA-Vehicle, p<0.01): significant decrease
time spent in centre area (VPA offspring, ticagrelor 30 mg/kg i.p. + 50 μg ZnSO4, vs VPA-Vehicle, p<0.05): significant decrease
deficit in sociability (three once-weekly administrations of ticagrelor and zinc salt, C57BL/6J mice exposed in utero to VPA): attenuated the deficit in sociability
